Reference: US12691097B2, “Methods and compositions for treating polyomavirus” (Brown University, priority 2022, dated 2026)
Entries after “also recorded” stand apart in the source; their conditions may differ.

Experiments:
JCPyV [1] = test: initial JCPyV infection in SVG-A glial cells, indirect immunofluorescent quantification of viral proteins; assay type: cell-based, JC polyomavirus; conditions: pre-treatment
JCPyV [2] = test: initial JCPyV infection in primary normal human astrocytes (NHA), indirect immunofluorescent quantification of viral proteins; assay type: cell-based, JC polyomavirus; conditions: pre-treatment
[3] = cytotoxicity in SVG-A cells; assay type: cell-based; conditions: human, read-out: 50% cytotoxic concentration (CC50)
[4] = cytotoxicity in NHA cells; assay type: cell-based; conditions: human, read-out: 50% cytotoxic concentration (CC50)
JCPyV [5] = test: long-term cell-to-cell spread of JCPyV; assay type: cell-based, JC polyomavirus; conditions: introduced after establishment of a productive infection
Source text: SI50 values are important metrics in drug discovery, and an SI50 greater than 10 is commonly considered to be an important starting point in drug development.

ERK1/2 = test: endogenous ERK phosphorylation, with or without PMA; assay type: cell-based
JCPyV [6] = test: rescue of JCPyV infection by PMA cotreatment in SVG-A cells; assay type: cell-based, JC polyomavirus; conditions: SVG-A cells cotreated with PMA and GW-5074
[7] = system: human and simian polyomaviruses; test: initial infection by human and simian polyomaviruses (FIG. 4); assay type: cell-based
JCPyV [8] = test: JCPyV infection, cells not stated (FIG. 1, FIG. 2); assay type: cell-based, JC polyomavirus
PML = test: administration to patients with or at risk of PML (Examples 1-6); assay type: in vivo
Source text: The patient's difficulty in walking is decreased. […] The patient's facial drooping is decreased. […] The patient's loss of vision is decreased. […] The patient's seizures are decreased. […].

JCPyV [9] = system: JCPyV; set-up: unit not given beside the values; conditions: cells not given; cited from earlier work
[10] = patient with early signs of PML

## O=C1Nc2ccc(I)cc2C1=Cc1cc(Br)c(O)c(Br)c1 [GW-5074, 3-(3,5-dibromo-4-hydroxybenzylidene)-5-iodoindolin-2-one]
JCPyV [1]; JC polyomavirus, SVG-A cells, one round of productive infection, read-out: 50% inhibitory concentration (IC50)
  IC50: 6.8 µM
JCPyV [1]; SVG-A glial cells, non-toxic concentrations
  initial JCPyV infection: potently reduced initial JCPyV infection
JCPyV [2]; JC polyomavirus, Astrocyte, NHA cells, one round of productive infection, read-out: 50% inhibitory concentration (IC50)
  IC50: 0.84 µM
JCPyV [2]; primary normal human astrocytes, non-toxic concentrations
  initial JCPyV infection: reduction of initial infection; also recorded: potently reduced initial JCPyV infection
[3]
  CC50: > 100 µM
[4]
  CC50: > 20 µM
JCPyV [5]
  long-term cell-to-cell spread of JCPyV: inhibition of viral spread; also recorded: inhibited long-term cell-to-cell spread of JCPyV
ERK1/2
  endogenous ERK phosphorylation: inhibits endogenous ERK1/2 phosphorylation; also recorded: inhibited endogenous ERK phosphorylation
ERK1/2; coincubation with PKC agonist PMA
  restoration of ERK activity: ERK activity could not be restored
JCPyV [6]
  rescue of JCPyV infection: JCPyV infection could not be rescued
[7]
  initial infection by human and simian polyomaviruses: reduction of initial infection
JCPyV [8]; FIG. 1, cells not stated
  initial JCPyV infection: reduction in initial JCPyV infection
JCPyV [8]; FIG. 2
  protective effect: protective effect
PML; patient at risk for the development of PML
  development of PML: does not develop PML
PML; [10]
  difficulty in walking: decreased
  facial drooping: decreased
  loss of vision: decreased
PML; patient with mid-stage PML
  loss of vision: decreased
  seizures: decreased

## Cc1ccc(C2Nc3ccccc3C(=O)N2c2ccccc2)s1 (stereo not shown) [Retro-2^cycl]
JCPyV [9]
  SI50 of established compounds with anti-JCPyV activity: 7.4

## CN(C)CCCN1c2ccccc2Sc2ccc(Cl)cc21 [chlorpromazine]
JCPyV [9]
  SI50 of established compounds with anti-JCPyV activity: 2.0

## OC(c1cc(C(F)(F)F)nc2c(C(F)(F)F)cccc12)C1CCCCN1 (stereo not shown) [mefloquine]
JCPyV [9]
  SI50 of established compounds with anti-JCPyV activity: 4.0
